Measured values as given in patent US8916702B2 (priority 2012, dated 2014).
Where two headings read alike, the source gives them in different places.

System: HCV pseudoparticles (genotype 1a HCV E1 and E2 envelope, H77C isolate)
Assay: microbe, parasite or virus in culture
Assay type: cell-based
Details: Hepatitis C virus
[1] = Huh-7, read-out: Activity (EC50 class), HCV pseudoparticles (genotype 1a, H77C) in Huh7 cells, EC50 expressed as class A/B
[2] = Huh-7, 48 h, read-out: Activity (EC50 class), HCV pseudoparticle infection of Huh7 cells, luciferase 2 days after infection, EC50 expressed as class A/B
[3] = Huh-7, 48 h, read-out: Activity (EC50 class), HCV pseudoparticles, Huh7 cells, luciferase 2 days after infection, average of duplicates
[4] = Huh-7, 48 h, HCV pseudoparticle infection of Huh7 cells, luciferase 2 days after infection, average of duplicates
[5] = Huh-7, 48 h, HCV pseudoparticles (genotype 1a, H77C) in Huh7 cells, average of duplicate, luciferase 2 days after infection

Structure (SMILES)	EC50 [1]	EC50 [2]	also measured
CC(C)(CNC(=O)C(=O)Nc1ccc(F)cc1C(F)(F)F)CNC(=O)c1ccc(Nc2nc(NC3(c4ccc(Cl)cc4)CC3)nc(OCC(F)(F)F)n2)cc1 [Compound 3457]	0.01 to 10 nM	–	–
O=C(NC[C@H](NC(=O)c1ccc(Nc2nc(NC3(c4ccc(Cl)cc4)CC3)nc(OCC(F)(F)F)n2)cc1)C(=O)O)C(=O)Nc1cccc(F)c1 [Compound 1357]	–	0.01 to 10 nM	–
COC(=O)[C@H](CNC(=O)C(=O)Nc1cccc(CCc2ccccn2)c1)NC(=O)c1ccc(Nc2nc(NC3(c4ccc(Cl)cc4)CC3)nc(OCC(F)(F)F)n2)cc1 [Compound 3713]	–	–	EC50 [3]: 0.01 to 10 nM
CC(C)(CNC(=O)C(=O)Nc1nc2ccc(OC(F)(F)F)cc2s1)CNC(=O)c1ccc(Nc2nc(NC3(c4ccc(Cl)cc4)CC3)nc(OCC(F)(F)F)n2)cc1 [Compound 3823]	–	–	EC50 [3]: 0.01 to 10 nM
COC(=O)[C@H](CCNC(=O)C(=O)NCC1CCCCCC1)NC(=O)c1ccc(Nc2nc(NC3(c4ccc(Cl)cc4)CC3)nc(OCC(F)(F)F)n2)cc1 [Compound 1197]	–	0.01 to 10 nM	–
CC(C)(CNC(=O)C(=O)NCc1ccc(Cl)cc1)CNC(=O)c1ccc(Nc2nc(NC3(c4ccc(Cl)cc4)CC3)nc(OCC(F)(F)F)n2)cc1 [Compound 3009]	0.01 to 10 nM	–	–
CC1CCCC(NC(=O)C(=O)NCC[C@H](NC(=O)c2ccc(Nc3nc(NC4(c5ccc(Cl)cc5)CC4)nc(OCC(F)(F)F)n3)cc2)C(=O)O)C1 (stereo partly shown) [Compound 1125]	–	0.01 to 10 nM	–
COC(=O)[C@H](CNC(=O)C(=O)Nc1ccc(CN2CCS(=O)(=O)CC2)cc1)NC(=O)c1ccc(Nc2nc(NC3(c4ccc(Cl)cc4)CC3)nc(OCC(F)(F)F)n2)cc1 [Compound 3194]	0.01 to 10 nM	–	–
COc1cc2sc(NC(=O)C(=O)NCC(C)(C)CNC(=O)c3ccc(Nc4nc(NC5(c6ccc(Cl)cc6)CC5)nc(OCC(F)(F)F)n4)cc3F)nc2cc1Cl [Compound 3680]	–	–	EC50 [3]: 0.01 to 10 nM
COC(=O)[C@H](CCNC(=O)C(=O)NCCc1ccc(F)cc1)NC(=O)c1ccc(Nc2nc(NC3(c4ccc(Cl)cc4)CC3)nc(OCC(F)(F)F)n2)cc1 [Compound 1315]	–	0.01 to 10 nM	EC50 [4]: 1.03 nM
Cn1ccc(NC(=O)C(=O)NCC(C)(C)CNC(=O)c2ccc(Nc3nc(NC4(c5ccc(Cl)cc5)CC4)nc(OCC(F)(F)F)n3)cc2F)n1 [Compound 3567]	0.01 to 10 nM	–	EC50 [5]: 0.035 nM
COC(=O)[C@H](CNC(=O)C(=O)Nc1cnn(C)c1)NC(=O)c1ccc(Nc2nc(NC3(c4ccc(Cl)cc4)CC3)nc(OCC(F)(F)F)n2)cc1 [Compound 1248]	–	0.01 to 10 nM	–
CC(C)(CNC(=O)C(=O)Nc1ccc(Cl)nc1)CNC(=O)c1ccc(Nc2nc(NC3(c4ccc(Cl)cc4)CC3)nc(OCC(F)(F)F)n2)cc1 [Compound 3255]	0.01 to 10 nM	–	EC50 [5]: 0.029 nM
CNS(=O)(=O)c1cccc(NC(=O)C(=O)NC[C@H](NC(=O)c2ccc(Nc3nc(NC4(c5ccc(Cl)cc5)CC4)nc(OCC(F)(F)F)n3)cc2)C(=O)Cl)c1 [Compound 3782]	–	–	EC50 [3]: 0.01 to 10 nM
CC(C)(CNC(=O)C(=O)NC1CCCCCC1)CNC(=O)c1ccc(Nc2nc(NC3(c4ccc(Cl)cc4)CC3)nc(OCC(F)(F)F)n2)cc1 [Compound 1033, N1-(3-(4-(4-(1-(4-chlorophenyl)cyclopropylamino)-6-(2,2,2-trifluoroethoxy)-1,3,5-triazin-2-ylamino)benzamido)-2,2-dimethylpropyl)-N2-cycloheptyloxalamide]	–	0.01 to 10 nM	–
COC(=O)[C@H](CCNC(=O)C(=O)NCC1CCCCC1)NC(=O)c1ccc(Nc2nc(NC3(c4ccc(Cl)cc4)CC3)nc(OCC(F)(F)F)n2)cc1 [Compound 1143]	–	0.01 to 10 nM	–
COC(=O)[C@H](CNC(=O)C(=O)Nc1ccc(-c2nc(OC)cc(OC)n2)cc1)NC(=O)c1ccc(Nc2nc(NC3(c4ccc(Cl)cc4)CC3)nc(OCC(F)(F)F)n2)cc1 [Compound 3185]	0.01 to 10 nM	–	–
CC(C)(CNC(=O)C(=O)Nc1ccc(CNC(N)=O)cc1)CNC(=O)c1ccc(Nc2nc(NC3(c4ccc(Cl)cc4)CC3)nc(OCC(F)(F)F)n2)cc1 [Compound 3671]	–	–	EC50 [3]: 0.01 to 10 nM
COC(=O)/C(CCNC(=O)C(=O)Nc1cncc(-c2nncn2C)c1)=N\C(=O)c1ccc(Nc2nc(NC3(c4ccc(Cl)cc4)CC3)nc(OCC(F)(F)F)n2)cc1 [Compound 3597]	0.01 to 10 nM	–	EC50 [5]: 3.05 nM
O=C(NC[C@H](NC(=O)c1ccc(Nc2nc(NC3(c4ccc(Cl)cc4)CC3)nc(OCC(F)(F)F)n2)cc1)C(=O)O)C(=O)Nc1cccc(S(=O)(=O)N2CCCCC2)c1 [Compound 3772]	–	–	EC50 (Huh-7, 48 h, HCV pseudoparticles, Huh7 cells, luciferase 2 days after infection, average of duplicates): 7.42 nM; EC50 [3]: 0.01 to 10 nM
CC(C)(C)c1cccc(NC(=O)C(=O)NCC[C@H](NC(=O)c2ccc(Nc3nc(NC4(c5ccc(Cl)cc5)CC4)nc(OCC(F)(F)F)n3)cc2)C(=O)O)c1 [Compound 3629]	–	–	EC50 [3]: 0.01 to 10 nM
CC(=O)Nc1ccc(NC(=O)C(=O)NC[C@H](NC(=O)c2ccc(Nc3nc(NC4(c5ccc(Cl)cc5)CC4)nc(OCC(F)(F)F)n3)cc2)C(=O)O)cn1 [Compound 3762]	–	–	EC50 [3]: 0.01 to 10 nM
COC(=O)C(CNC(=O)C(=O)NC1CCN(C(=O)OC(C)(C)C)CC1)NC(=O)c1ccc(Nc2nc(NC3(c4ccc(Cl)cc4)CC3)nc(OCC(F)(F)F)n2)cc1 (stereo not shown) [Compound 1049]	–	0.01 to 10 nM	–

Structure (SMILES)	EC50 [1]	EC50 [2]	also measured
CC(C)(CNC(=O)C(=O)Nc1cccc(F)c1F)CNC(=O)c1ccc(Nc2nc(NC3(c4ccc(Cl)cc4)CC3)nc(OCC(F)(F)F)n2)cc1 [Compound 3261]	0.01 to 10 nM	–	EC50 [5]: 0.072 nM
COC(=O)[C@H](CNC(=O)C(=O)Nc1cccc(OC)c1)NC(=O)c1ccc(Nc2nc(NC3(c4ccc(Cl)cc4)CC3)nc(OCC(F)(F)F)n2)cc1 [Compound 1250]	–	0.01 to 10 nM	–
COC(=O)[C@H](CCNC(=O)C(=O)Nc1ccc(OCCc2ccccn2)cc1)NC(=O)c1ccc(Nc2nc(NC3(c4ccc(Cl)cc4)CC3)nc(OCC(F)(F)F)n2)cc1 [Compound 3315]	0.01 to 10 nM	–	–
CC(C)(CNC(=O)C(=O)N1CCc2cc(F)ccc21)CNC(=O)c1ccc(Nc2nc(NC3(c4ccc(Cl)cc4)CC3)nc(OCC(F)(F)F)n2)cc1 [Compound 1585]	–	0.01 to 10 nM	EC50 [4]: 0.03 nM
O=C(NC[C@H](NC(=O)c1ccc(Nc2nc(NC3(c4ccc(Cl)cc4)CC3)nc(OCC(F)(F)F)n2)cc1)C(=O)O)C(=O)Nc1cccc(S(=O)(=O)C(F)(F)F)c1 [Compound 3766]	–	–	EC50 [3]: 0.01 to 10 nM
COC(=O)[C@H](CCNC(=O)C(=O)Nc1ccc(Oc2ccccc2)cc1)NC(=O)c1ccc(Nc2nc(NC3(c4ccc(Cl)cc4)CC3)nc(OCC(F)(F)F)n2)cc1 [Compound 3113]	0.01 to 10 nM	–	EC50 [5]: 7.77 nM
CC(CNC(=O)C(=O)NCC[C@H](NC(=O)c1ccc(Nc2nc(NC3(c4ccc(Cl)cc4)CC3)nc(OCC(F)(F)F)n2)cc1)C(=O)O)c1ccccc1 (stereo partly shown) [Compound 1327]	–	0.01 to 10 nM	–
COc1ccccc1CNC(=O)C(=O)NC[C@H](NC(=O)c1ccc(Nc2nc(NC3(c4ccc(Cl)cc4)CC3)nc(OCC(F)(F)F)n2)cc1)C(=O)O [Compound 1165]	–	0.01 to 10 nM	–
COC(=O)[C@H](CCNC(=O)C(=O)Nc1ccccc1F)NC(=O)c1ccc(Nc2nc(NC3(c4ccc(Cl)cc4)CC3)nc(OCC(F)(F)F)n2)cc1 [Compound 1231]	–	0.01 to 10 nM	–
O=C(NCC[C@H](NC(=O)c1ccc(Nc2nc(NC3(c4ccc(Cl)cc4)CC3)nc(OCC(F)(F)F)n2)cc1)C(=O)O)C(=O)Nc1cccc(Cc2ccccn2)c1 [Compound 3650]	–	–	EC50 [3]: 0.01 to 10 nM
COC(=O)[C@H](CCNC(=O)C(=O)NCC1CCCOC1)NC(=O)c1ccc(Nc2nc(NC3(c4ccc(Cl)cc4)CC3)nc(OCC(F)(F)F)n2)cc1 (stereo partly shown) [Compound 1198]	–	0.01 to 10 nM	–
COC(=O)[C@H](CNC(=O)C(=O)Nc1ccc(C)cc1)NC(=O)c1ccc(Nc2nc(NC3(c4ccc(Cl)cc4)CC3)nc(OCC(F)(F)F)n2)cc1 [Compound 3085]	0.01 to 10 nM	–	–
COc1ccc2nc(NC(=O)C(=O)NCC(C)(C)CNC(=O)c3ccc(Nc4nc(NC5(c6ccc(Cl)cc6)CC5)nc(OCC(F)(F)F)n4)cc3)sc2n1 [Compound 3803]	–	–	EC50 [3]: 0.01 to 10 nM
COC(=O)[C@H](CCNC(=O)C(=O)N[C@@H]1C[C@@H]2CC[C@H]1C2)NC(=O)c1ccc(Nc2nc(NC3(c4ccc(Cl)cc4)CC3)nc(OCC(F)(F)F)n2)cc1 [Compound 1102]	–	0.01 to 10 nM	–
O=C(Nc1ccccc1)C(=O)N1CCCC(CNC(=O)c2ccc(Nc3nc(NC4(c5ccc(Cl)cc5)CC4)nc(OCC(F)(F)F)n3)cc2)C1 (stereo not shown) [Compound 3488]	0.01 to 10 nM	–	–
O=C(NCCC(NC(=O)c1ccc(Nc2nc(NC3(c4ccc(Cl)cc4)CC3)nc(OCC(F)(F)F)n2)cc1)C(=O)O)C(=O)Nc1ccc(Cn2cncn2)cc1 (stereo not shown) [Compound 3520]	0.01 to 10 nM	–	–
O=C(NCC[C@H](NC(=O)c1ccc(Nc2nc(NC3(c4ccc(Cl)cc4)CC3)nc(OCC(F)(F)F)n2)cc1)C(=O)O)C(=O)Nc1ccccn1 [Compound 1279]	–	0.01 to 10 nM	EC50 [4]: 1.29 nM
COC(=O)[C@H](CCNC(=O)C(=O)NCc1ccccc1OC)NC(=O)c1ccc(Nc2nc(NC3(c4ccc(Cl)cc4)CC3)nc(OCC(F)(F)F)n2)cc1 [Compound 1155]	–	0.01 to 10 nM	–
O=C(NCc1cc(F)cc(F)c1)C(=O)NC[C@H](NC(=O)c1ccc(Nc2nc(NC3(c4ccc(Cl)cc4)CC3)nc(OCC(F)(F)F)n2)cc1)C(=O)O [Compound 1173]	–	0.01 to 10 nM	EC50 [4]: 0.74 nM
COc1cc(NC(=O)C(=O)NCC(C)(C)CNC(=O)c2ccc(Nc3nc(NC4(c5ccc(Cl)cc5)CC4)nc(OCC(F)(F)F)n3)cc2)ccc1F [Compound 3069]	0.01 to 10 nM	–	–
O=C(NCC[C@H](NC(=O)c1ccc(Nc2nc(NC3(c4ccc(Cl)cc4)CC3)nc(OCC(F)(F)F)n2)cc1)C(=O)O)C(=O)NCC1(COc2ccccc2)CC1 [Compound 1431]	–	0.01 to 10 nM	–
COC(=O)[C@H](CNC(=O)C(=O)NCCc1ccncc1)NC(=O)c1ccc(Nc2nc(NC3(c4ccc(Cl)cc4)CC3)nc(OCC(F)(F)F)n2)cc1 [Compound 1288]	–	0.01 to 10 nM	–
